Laboratory results from ChEMBL document CHEMBL4130375, “Design, synthesis and biological evaluation of 4-amidobenzimidazole acridine derivatives as dual PARP and Topo inhibitors for cancer therapy” (Eur J Med Chem, 2017).
Calls of active or inactive are those of the source. The rule behind the calls is not given here.

Key:
[1] = biological target: T1, DNA topoisomerase 1 (Homo sapiens) (UniProt P11387); assay: Inhibition of topoisomerase-1 in human MCF7 cells assessed as enzyme-DNA cleavage complex formation by measuring decrease in topoisomerase-1 protein expression after 24 hrs by Western blot analysis; type: cell-based
T1 sequence (whole entry): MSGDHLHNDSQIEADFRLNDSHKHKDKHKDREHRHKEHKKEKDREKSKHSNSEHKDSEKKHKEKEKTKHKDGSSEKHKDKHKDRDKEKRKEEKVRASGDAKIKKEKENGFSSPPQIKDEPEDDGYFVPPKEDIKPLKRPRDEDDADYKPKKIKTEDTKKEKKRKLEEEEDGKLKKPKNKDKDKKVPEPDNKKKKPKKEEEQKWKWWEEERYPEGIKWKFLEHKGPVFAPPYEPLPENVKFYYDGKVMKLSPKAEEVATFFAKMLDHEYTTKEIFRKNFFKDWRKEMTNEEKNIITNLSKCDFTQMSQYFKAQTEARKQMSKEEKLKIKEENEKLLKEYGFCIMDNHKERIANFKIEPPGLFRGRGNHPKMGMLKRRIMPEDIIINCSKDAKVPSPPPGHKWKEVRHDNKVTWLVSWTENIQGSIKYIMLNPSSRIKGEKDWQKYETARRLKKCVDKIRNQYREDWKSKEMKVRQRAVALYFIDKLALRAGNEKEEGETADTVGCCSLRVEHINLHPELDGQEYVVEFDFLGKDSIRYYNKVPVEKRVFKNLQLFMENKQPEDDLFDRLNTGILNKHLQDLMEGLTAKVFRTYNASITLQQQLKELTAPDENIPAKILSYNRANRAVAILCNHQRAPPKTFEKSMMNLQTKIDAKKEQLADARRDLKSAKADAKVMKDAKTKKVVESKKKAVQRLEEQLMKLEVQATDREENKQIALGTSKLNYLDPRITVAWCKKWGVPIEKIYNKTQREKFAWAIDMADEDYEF

HCT-116 [2] = assay: Antiproliferative activity against human HCT116 cells expressing topoisomerase-1 after 72 hrs by MTT assay; type: functional, cell-based; conditions: HCT-116, 72 h
MCF7 [3] = assay: Downregulation of CDK4 protein expression in human MCF7 cells up to 10 uM after 24 hrs by Western blot method; type: functional, cell-based
MCF7 [4] = assay: Cell cycle arrest in human MCF7 cells assessed as accumulation at G0/G1 phase at 10 uM after 24 hrs by propidium iodide staining based flow cytometry (reference value: 17.67 +/- 1.25%); type: functional
MCF7 [5] = assay: Induction of DNA double strand breaks in human MCF7 cells assessed as increase in gammaH2AX level after 24 hrs by Western blot analysis; type: functional, cell-based
Cytochrome P450 2C19 = Cytochrome P450 2C19 (Homo sapiens, UniProt P33261); assay: Inhibition of CYP2C19 in human liver microsomes preincubated for 10 mins followed by NADPH/substrate addition measured after 20 mins by LC-MS/MS analysis
MCF7 [6] = assay: Antitumor activity against human MCF7 cells xenografted in mouse assessed as tumor growth inhibition at 20 to 40 mg/kg/day, ip measured on day 30 post initial treatment; type: functional, organism-based
Cytochrome P450 1A2 = biological target: T2, Cytochrome P450 1A2 (Homo sapiens, UniProt P05177); assay: Inhibition of CYP1A2 in human liver microsomes preincubated for 10 mins followed by NADPH/substrate addition measured after 20 mins by LC-MS/MS analysis
T2 sequence (P05177 whole entry): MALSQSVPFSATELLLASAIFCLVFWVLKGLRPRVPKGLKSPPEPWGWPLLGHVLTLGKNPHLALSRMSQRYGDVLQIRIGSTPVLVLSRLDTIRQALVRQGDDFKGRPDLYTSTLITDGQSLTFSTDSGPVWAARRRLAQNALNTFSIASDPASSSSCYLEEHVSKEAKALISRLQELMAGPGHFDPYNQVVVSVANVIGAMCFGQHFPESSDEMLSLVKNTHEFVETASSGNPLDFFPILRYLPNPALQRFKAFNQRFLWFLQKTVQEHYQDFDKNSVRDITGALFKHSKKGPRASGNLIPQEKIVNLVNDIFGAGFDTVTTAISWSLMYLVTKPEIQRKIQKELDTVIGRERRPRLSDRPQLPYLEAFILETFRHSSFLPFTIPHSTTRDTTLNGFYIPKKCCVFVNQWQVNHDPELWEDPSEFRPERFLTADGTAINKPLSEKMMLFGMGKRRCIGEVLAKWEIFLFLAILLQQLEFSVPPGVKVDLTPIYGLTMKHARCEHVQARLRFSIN

MCF7 [7] = assay: Cell cycle arrest in human MCF7 cells assessed as accumulation at S phase at 5 uM after 24 hrs by propidium iodide staining based flow cytometry (reference value: 59.72 +/- 2.98%); type: functional
[8] = biological target: DNA topoisomerase 2-alpha (Homo sapiens) (UniProt P11388); assay: Poison activity at topoisomerase-2 in human MCF7 cells assessed as enzyme-DNA complex formation by measuring decrease in topoisomerase-2 protein expression after 24 hrs by Western blot analysis; type: cell-based
MCF7 [9] = assay: Potency index, ratio of olaparib IC50 to compound IC50 for human MCF7 cells; type: functional
MCF7 [10] = assay: cells; conditions: Homo sapiens, MCF7, 72 h
[11] = Intrinsic clearance in mouse liver microsomes at 1.11 uM preincubated for 5 mins followed by NADPH addition by LC-MS/MS analysis; type: ADME, microsome; conditions: read-out: CLH
Cytochrome P450 2D6 = Cytochrome P450 2D6 (Homo sapiens, UniProt P10635); assay: Inhibition of CYP2D6 in human liver microsomes preincubated for 10 mins followed by NADPH/substrate addition measured after 20 mins by LC-MS/MS analysis
MCF7 [12] = assay: Cell cycle arrest in human MCF7 cells assessed as accumulation at G2/M phase at 1 uM after 24 hrs by propidium iodide staining based flow cytometry (reference value: 22.61 +/- 1.55%); type: functional
[13] = Intrinsic clearance in rat liver microsomes at 1.11 uM preincubated for 5 mins followed by NADPH addition by LC-MS/MS analysis; type: ADME, microsome; conditions: read-out: CLH
[14] = Half life in human liver microsomes at 1.11 uM preincubated for 5 mins followed by NADPH addition by LC-MS/MS analysis; type: ADME, microsome
MCF7 [15] = assay: Cell cycle arrest in human MCF7 cells after 24 hrs by propidium iodide staining based flow cytometry; type: functional
HCT-116 [16] = assay: Potency index, ratio of m-AMSA IC50 to compound IC50 for human HCT116 cells expressing topoisomerase-1; type: functional
MCF7 [17] = assay: Induction of apoptosis in human MCF7 cells assessed as necrotic cells at 5 uM after 48 hrs by Annexin V-FITC/propidium iodide staining based flow cytometry (reference value: 0%); type: functional
MCF7 [18] = assay: Induction of apoptosis in human MCF7 cells assessed as early apoptotic cells at 5 uM after 48 hrs by Annexin V-FITC/propidium iodide staining based flow cytometry (reference value: 0.108%); type: functional
HCC1937 = assay: Potency index, ratio of olaparib IC50 to compound IC50 for human HCC1937 cells harboring BRCA1 mutant; type: functional

Cytochrome P450 2C19, sequence (P33261 whole entry): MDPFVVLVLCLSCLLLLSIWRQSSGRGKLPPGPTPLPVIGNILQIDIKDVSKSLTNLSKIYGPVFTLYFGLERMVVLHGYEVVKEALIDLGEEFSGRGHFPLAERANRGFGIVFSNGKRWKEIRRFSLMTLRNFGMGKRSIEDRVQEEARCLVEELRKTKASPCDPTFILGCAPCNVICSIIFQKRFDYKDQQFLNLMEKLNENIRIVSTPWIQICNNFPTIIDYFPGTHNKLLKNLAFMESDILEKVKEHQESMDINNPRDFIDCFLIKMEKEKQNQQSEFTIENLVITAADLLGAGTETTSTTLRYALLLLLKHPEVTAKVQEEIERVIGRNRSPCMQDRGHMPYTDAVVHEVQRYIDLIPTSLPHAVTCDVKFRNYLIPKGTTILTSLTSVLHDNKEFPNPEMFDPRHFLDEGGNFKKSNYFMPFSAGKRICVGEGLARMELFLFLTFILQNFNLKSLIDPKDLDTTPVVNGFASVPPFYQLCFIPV
DNA topoisomerase 2-alpha (Homo sapiens), sequence (P11388 whole entry): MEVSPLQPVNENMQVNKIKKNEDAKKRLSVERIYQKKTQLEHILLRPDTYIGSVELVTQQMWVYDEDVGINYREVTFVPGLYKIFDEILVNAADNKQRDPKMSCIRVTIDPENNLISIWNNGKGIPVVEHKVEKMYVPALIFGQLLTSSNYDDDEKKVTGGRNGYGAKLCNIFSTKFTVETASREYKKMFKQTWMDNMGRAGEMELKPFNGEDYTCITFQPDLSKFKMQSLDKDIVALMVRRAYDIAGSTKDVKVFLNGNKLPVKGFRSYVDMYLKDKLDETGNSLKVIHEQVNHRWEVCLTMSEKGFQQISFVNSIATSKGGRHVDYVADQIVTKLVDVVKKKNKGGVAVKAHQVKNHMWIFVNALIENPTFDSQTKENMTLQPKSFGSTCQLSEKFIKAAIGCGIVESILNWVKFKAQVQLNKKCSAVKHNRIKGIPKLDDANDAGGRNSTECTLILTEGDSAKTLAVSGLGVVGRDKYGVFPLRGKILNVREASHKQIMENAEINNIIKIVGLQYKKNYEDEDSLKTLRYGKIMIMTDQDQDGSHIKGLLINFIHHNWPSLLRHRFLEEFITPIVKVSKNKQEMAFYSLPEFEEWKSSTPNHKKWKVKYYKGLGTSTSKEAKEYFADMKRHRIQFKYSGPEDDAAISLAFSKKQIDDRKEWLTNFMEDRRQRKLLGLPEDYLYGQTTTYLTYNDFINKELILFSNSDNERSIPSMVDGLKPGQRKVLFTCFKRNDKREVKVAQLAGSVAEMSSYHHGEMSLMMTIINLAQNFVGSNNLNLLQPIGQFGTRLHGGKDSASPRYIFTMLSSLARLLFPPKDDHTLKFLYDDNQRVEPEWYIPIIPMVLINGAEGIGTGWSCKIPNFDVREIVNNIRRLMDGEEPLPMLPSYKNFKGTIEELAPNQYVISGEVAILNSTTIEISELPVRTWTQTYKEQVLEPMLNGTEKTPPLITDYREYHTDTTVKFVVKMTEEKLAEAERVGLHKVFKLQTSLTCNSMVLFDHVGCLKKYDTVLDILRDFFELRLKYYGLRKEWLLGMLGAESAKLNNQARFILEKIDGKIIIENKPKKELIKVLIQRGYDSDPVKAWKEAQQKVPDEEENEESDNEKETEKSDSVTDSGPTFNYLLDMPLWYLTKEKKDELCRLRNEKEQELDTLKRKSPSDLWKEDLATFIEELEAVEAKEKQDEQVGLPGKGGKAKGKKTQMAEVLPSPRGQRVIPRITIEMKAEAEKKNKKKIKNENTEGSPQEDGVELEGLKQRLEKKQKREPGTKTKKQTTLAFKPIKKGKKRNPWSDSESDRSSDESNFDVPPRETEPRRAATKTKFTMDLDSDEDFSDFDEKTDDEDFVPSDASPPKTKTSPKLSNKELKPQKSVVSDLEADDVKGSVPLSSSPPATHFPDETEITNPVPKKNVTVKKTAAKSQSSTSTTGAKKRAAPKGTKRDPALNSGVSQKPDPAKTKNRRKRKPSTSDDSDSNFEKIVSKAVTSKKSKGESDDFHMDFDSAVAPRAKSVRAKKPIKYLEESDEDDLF
Cytochrome P450 2D6, sequence (P10635 whole entry): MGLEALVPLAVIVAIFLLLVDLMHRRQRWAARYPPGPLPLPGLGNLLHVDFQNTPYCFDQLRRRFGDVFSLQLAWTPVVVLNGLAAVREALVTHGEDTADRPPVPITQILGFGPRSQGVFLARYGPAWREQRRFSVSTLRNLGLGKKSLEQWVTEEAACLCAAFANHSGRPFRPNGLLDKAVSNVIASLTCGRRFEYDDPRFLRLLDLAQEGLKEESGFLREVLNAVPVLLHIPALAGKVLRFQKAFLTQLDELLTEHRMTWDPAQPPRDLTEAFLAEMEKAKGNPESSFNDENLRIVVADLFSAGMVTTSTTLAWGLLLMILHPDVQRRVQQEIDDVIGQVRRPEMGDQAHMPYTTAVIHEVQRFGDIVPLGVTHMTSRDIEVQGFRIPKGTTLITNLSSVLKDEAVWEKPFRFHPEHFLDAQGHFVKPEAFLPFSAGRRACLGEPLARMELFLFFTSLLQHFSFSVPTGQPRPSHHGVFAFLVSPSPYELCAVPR

inhibition [1]: Dose-dependent effect
IC50 (HCT-116 [2]): 1.43 µM
IC50 (Cytochrome P450 2C19): > 10 µM
IC50 (Cytochrome P450 1A2): > 10 µM
IC50 (MCF7 [10]): 2.14 µM
microsomal CLint at 1.11 µM [11]: 11.4 µL/min/mg
IC50 (Cytochrome P450 2D6): > 10 µM
microsomal CLint at 1.11 µM [13]: 28.4 µL/min/mg
half-life at 1.11 µM [14]: 27.8 min
Structure (SMILES): Cc1cccc2c(Nc3cccc(-c4nc5c(C(N)=O)cccc5[nH]4)c3)c3ccccc3nc12
Activity (MCF7 [3]): Active
Activity (MCF7 [4]): 58.27%
Activity (MCF7 [5]): Dose-dependent effect
TGI (MCF7 [6]): Active
Activity (MCF7 [7]): 42.32%
Activity [8]: Dose-dependent effect
Ratio IC50 (MCF7 [9]): 17
Activity (MCF7 [12]): 21.76%
Activity (MCF7 [15]): Dose-dependent effect
Ratio IC50 (HCT-116 [16]): 2.7
Activity (MCF7 [17]): 0.641%
Activity (MCF7 [18]): 23.9%
Ratio IC50 (HCC1937): 6
